Reference: patent US11873496B2, “Methods of altering gene expression by perturbing transcription factor multimers that structure regulatory loops” (Whitehead Institute for Biomedical Research, priority 2017, dated 2024)

Legend:
HA-tagged YY1 = experiment: co-immunoprecipitation from nuclear extract treated with RNase A before IP with anti-tag antibodies, western blot quantification
[1] = test system: YY1-YY1 enhancer-promoter interactions; experiment: H3K27ac HiChIP of enhancer-promoter interactions after YY1 degradation and washout; format: cell-based, mouse; conditions: mES cells
Experimental: HiChIP was performed as described in (Mumbach et al., 2016) with a few modifications. Ten million cells cross-linked for 10 min at room temperature with 1% formaldehyde in growth media and quenched in 0.125 M glycine. After washing twice with ice-cold PBS, the supernatant was aspirated and the cell pellet was flash frozen in liquid nitrogen and stored at −80° C.
Cross-linked cell pellets were thawed on ice, resuspended in 800 μL of ice-cold Hi-C lysis buffer (10 mM Tris-HCl pH 8.0, 10 mM NaCl, and 0.2% IGEPAL CA-630 with 1× cOmplete protease inhibitor (Roche, 11697498001)), and incubated at 4° C. for 30 minutes with rotation. Nuclei were pelleted by centrifugation at 2500 rcf for 5 min at 4° C. and washed once with 500 μL of ice-cold Hi-C lysis buffer. After removing supernatant, nuclei were resuspended in 100 μL of 0.5% SDS and incubated at 62° C. for 10 minutes. SDS was quenched by adding 335 μL of 1.5% Triton X-100 and incubating for 15 minutes at 37° C. After the addition of 50 μL of 10×NEB Buffer 2 (NEB, B7002) and 375 U of MboI restriction enzyme (NEB, R0147), chromatin was digested at 37° C. for 2 hours with rotation. Following digestion, MboI enzyme was heat inactivated by incubating the nuclei at 62° C. for 20 min. […]

[2] = target: T1, FKBP degron-tagged YY1 protein (Mus musculus, UniProt Q00899+Q8C7D2); experiment: dTAG inducible degradation of FKBP tagged YY1 (western blot); format: cell-based
T1 construct: A clonal homozygous knock-in line expressing FKBP tagged YY1 was used for the degradation experiments; endogenous in cells; host or cells: V6.5 mES cells, clonal homozygous knock-in (repair plasmids pAW62.YY1.FKBP.knock-in.mCherry and pAW63.YY1.FKBP.knock-in.BFP)
Experimental: For the generation of the endogenously tagged lines, five hundred thousand mES cells were transfected with 2.5 ug Cas9 plasmid and 1.25 ug non-linearized repair plasmid 1 (pAW62.YY1.FKBP.knock-in.mCherry) and 1.25 ug non-linearized repair plasmid 2 (pAW63.YY1.FKBP.knock-in.BFP). Cells were sorted after 48 hours for the presence of GFP. Cells were expanded for five days and then sorted again for double positive mCherry and BFP cells. Thirty thousand mCherry+/BFP+ sorted cells were plated in a six-well plate in a 1:2 serial dilution (first well 15,000 cells, second well 7,500 cells, etc). The cells were grown for approximately one week in 2i medium and then individual colonies were picked using a stereoscope into a 96-well plate. Cells were expanded and genotyped by PCR (YY1_gPCR_3F/3R, Table S3). Clones with a homozygous knock-in tag were further expanded and used for experiments.
A clonal homozygous knock-in line expressing FKBP tagged YY1 was used for the degradation experiments. Cells were grown two passages off MEFs and then treated with dTAG-47 at a concentration of 500 nM for 24 hours.
The homozygous knock-in line expressing FKBP tagged YY1 was cultured on 2i+LIF media. Cells were treated with dTAG-47 at a concentration of 500 nM for 24 hours. After 24 hours of drug treatment, cells were washed three times with PBS and passaged onto a new plate. […]

[3] = test system: linear DNA template containing YY1 binding sites; experiment: In vitro DNA circularization assay (T4 DNA ligase); format: biochemical; conditions: 0.25 nM DNA, 0.12 μg/μL protein, 20° C.; competitor 100 nM
Experimental: First, two plasmids (pAW49, pAW79) were generated. pAW49 contains YY1 binding sites separated by ˜3.5 kb of intervening DNA. pAW79 is identical except it contains filler DNA instead of the YY1 motifs. The intervening DNA was chosen based on looking at YY1 ChIP-seq and motif distribution in mES cells to identify regions that lacked YY1 occupancy and YY1 binding motifs. The YY1 binding motifs were chosen based on successful EMSAs (Sigova et al., 2015). Approximately 200 bp of sequence was added between the binding motifs and the termini in order to provide flexibility for the termini to ligate. The plasmid was built using Gibson assembly.
Next, a PCR was run using plasmid as a template to generate a linear piece of DNA (Table S5). This PCR product was PCR purified (Qiagen 28104) and then digested with BamHI (NEB R3136) and PCR purified. The BamHI digested template was used in the ligation assay.
The ligation assay was carried out as follows. Reactions were prepared on ice in 66 μL with the following components:
BSA control: 0.25 nM DNA, 1× T4 DNA ligase buffer (NEB B0202S), H2O, 0.12 μg/μL of BSA […]
Quantification was done using Image Lab version 5.2.1 (Bio-Rad Laboratories). First, band density of the starting product and ligation product were measured. Then the percent circularized was calculated: (ligation product)/(ligation product+starting band)*100. […]

YY1 = YY1 (Homo sapiens, UniProt P25490 P25490:1-414); experiment: EMSA; 20 fmol probe, 2 ug YY1, 5 mM MgCl2, 0.1 mM ZnCl2, poly dIdC, RT; abolished by 200-fold cold competitor; conditions: label: 5' biotin
Experimental: To generate the biotin labeled probe, 30-nucleotide-long 5' biotinylated single stranded oligonucleotides (IDT) were annealed in 10 mM Tris pH 7.5, 50 mM NaCl, and 1 mM EDTA at a 50 uM concentration. The same protocol was used to generate the cold competitor. The probe was serially diluted to a concentration of 10 fmol/4 and cold competitor to a concentration of 2 pmol/µL. 2 µL of diluted probe and cold competitor were used for each binding reaction for a final amount of 20 fmol labeled probe and 4 pmol cold competitor (200 fold excess) in each reaction.
Binding reactions were set-up in a 20 µL volume containing 1× Binding Buffer (10 mM Tris, 50 mM KCl, 1 mM DTT; pH 7.5), 2.5% Glycerol, 5 mM MgCl2, 50 ng/4 Poly dl dC, 0.05% Np-40, 0.1 mM ZnCl2, 10 mM Hepes, and 2 ug of recombinant YY1 protein. Binding reactions were pre-incubated for 20 mins at room temperature with or without the cold competitor. Labeled probe was then added to binding reactions and incubated for 80 minutes at room temperature. […] The DNA was then crosslinked to the membrane by placing the membrane on a Dark Reader Transilluminator for 15 mins. The membrane was allowed to air dry at room temperature overnight and chemiluminescence detected the following day. […]

T1 sequence (Q00899 with tags, fused parts or gaps): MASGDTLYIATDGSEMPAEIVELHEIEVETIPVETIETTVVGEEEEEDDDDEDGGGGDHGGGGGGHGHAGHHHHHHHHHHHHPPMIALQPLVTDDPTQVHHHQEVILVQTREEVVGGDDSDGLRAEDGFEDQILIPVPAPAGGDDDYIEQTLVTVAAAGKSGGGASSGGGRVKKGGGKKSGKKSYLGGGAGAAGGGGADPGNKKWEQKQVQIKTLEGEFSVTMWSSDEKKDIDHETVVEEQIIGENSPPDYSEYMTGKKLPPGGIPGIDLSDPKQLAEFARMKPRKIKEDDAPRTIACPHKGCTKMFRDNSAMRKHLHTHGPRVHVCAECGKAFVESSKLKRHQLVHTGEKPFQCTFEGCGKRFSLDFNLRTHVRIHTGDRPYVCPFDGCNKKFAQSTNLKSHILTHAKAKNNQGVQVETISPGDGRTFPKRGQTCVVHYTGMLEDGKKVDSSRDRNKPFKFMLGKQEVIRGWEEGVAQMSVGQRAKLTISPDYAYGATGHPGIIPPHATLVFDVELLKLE
T1 sequence (Q8C7D2 whole entry): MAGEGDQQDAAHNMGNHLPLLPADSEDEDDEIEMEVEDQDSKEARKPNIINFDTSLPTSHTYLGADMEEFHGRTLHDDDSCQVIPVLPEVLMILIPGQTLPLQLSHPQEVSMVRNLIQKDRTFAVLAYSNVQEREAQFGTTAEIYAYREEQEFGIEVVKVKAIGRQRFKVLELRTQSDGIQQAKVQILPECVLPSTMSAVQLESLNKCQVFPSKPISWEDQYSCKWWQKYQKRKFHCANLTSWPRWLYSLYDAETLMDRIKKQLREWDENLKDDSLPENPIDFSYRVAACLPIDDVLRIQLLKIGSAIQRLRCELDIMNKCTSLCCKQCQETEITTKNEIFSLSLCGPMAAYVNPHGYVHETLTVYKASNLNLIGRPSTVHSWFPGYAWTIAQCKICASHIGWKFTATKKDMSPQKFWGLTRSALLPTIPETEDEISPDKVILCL
T1 sequence (Q3U1J4 whole entry partner): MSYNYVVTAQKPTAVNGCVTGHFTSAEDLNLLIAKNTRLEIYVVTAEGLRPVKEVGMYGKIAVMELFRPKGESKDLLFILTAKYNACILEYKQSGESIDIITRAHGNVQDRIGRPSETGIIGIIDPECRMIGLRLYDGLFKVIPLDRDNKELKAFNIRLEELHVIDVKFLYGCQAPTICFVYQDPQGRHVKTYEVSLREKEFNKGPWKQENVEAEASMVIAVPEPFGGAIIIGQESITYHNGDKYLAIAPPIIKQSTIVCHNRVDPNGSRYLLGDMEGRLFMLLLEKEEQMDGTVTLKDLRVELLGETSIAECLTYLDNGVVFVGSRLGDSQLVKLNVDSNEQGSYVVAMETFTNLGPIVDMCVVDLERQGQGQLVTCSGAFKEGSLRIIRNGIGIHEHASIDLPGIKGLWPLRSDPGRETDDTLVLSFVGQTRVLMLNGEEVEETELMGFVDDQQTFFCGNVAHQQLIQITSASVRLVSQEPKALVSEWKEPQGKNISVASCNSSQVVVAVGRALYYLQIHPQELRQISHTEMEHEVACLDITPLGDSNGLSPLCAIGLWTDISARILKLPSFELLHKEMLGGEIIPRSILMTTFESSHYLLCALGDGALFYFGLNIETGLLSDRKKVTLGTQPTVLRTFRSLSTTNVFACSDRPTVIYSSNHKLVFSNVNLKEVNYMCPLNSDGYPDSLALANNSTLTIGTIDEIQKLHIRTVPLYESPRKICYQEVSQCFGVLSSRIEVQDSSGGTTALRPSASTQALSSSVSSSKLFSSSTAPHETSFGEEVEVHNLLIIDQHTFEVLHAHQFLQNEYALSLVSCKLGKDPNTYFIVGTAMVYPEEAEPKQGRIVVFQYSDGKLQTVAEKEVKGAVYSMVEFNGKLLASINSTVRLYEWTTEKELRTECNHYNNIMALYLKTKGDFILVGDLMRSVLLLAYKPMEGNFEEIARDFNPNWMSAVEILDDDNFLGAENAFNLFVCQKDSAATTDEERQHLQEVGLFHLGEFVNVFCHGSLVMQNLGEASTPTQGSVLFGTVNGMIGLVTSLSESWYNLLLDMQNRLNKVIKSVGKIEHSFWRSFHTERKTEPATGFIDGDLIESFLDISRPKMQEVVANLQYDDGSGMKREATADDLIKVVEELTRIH
Chain of HA-tagged YY1 (P25490 whole entry): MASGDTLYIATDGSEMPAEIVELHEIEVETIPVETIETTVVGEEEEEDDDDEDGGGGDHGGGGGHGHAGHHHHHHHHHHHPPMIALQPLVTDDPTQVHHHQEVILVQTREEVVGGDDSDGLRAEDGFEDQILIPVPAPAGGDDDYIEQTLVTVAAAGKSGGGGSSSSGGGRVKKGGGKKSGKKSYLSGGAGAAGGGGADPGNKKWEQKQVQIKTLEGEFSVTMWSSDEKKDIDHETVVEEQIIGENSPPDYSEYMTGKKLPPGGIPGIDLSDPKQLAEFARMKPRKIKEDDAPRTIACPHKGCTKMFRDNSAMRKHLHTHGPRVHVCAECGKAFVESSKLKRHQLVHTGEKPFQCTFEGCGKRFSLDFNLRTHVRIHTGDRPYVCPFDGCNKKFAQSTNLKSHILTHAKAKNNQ
Chain of YY1 (P25490 whole entry, one chain of several): as the sequence (P25490 whole entry) above

Molecule: FLAG-tagged YY1
- reduction in the amount of co-immunoprecipitated YY1 partner protein after RNase A treatment (HA-tagged YY1): 60%

Molecule: CC[C@H](C(=O)N1CCCC[C@H]1C(=O)O[C@H](CCc1ccc(OC)c(OC)c1)c1ccccc1OCC(=O)NCCCCCCCCNc1ccc2c(c1)C(=O)N(C1CCC(=O)NC1=O)C2=O)c1cc(OC)c(OC)c(OC)c1 (stereo partly drawn) [dTAG-47, (2S)-(1R)-3-(3,4-dimethoxyphenyl)-1-(2-(2-((8-((2-(2,6-dioxopiperidin-3-yl)-1,3-dioxoisoindolin-5-yl)amino)octyl)amino)-2-oxoethoxy)phenyl)propyl 1-((S)-2-(3,4,5-trimethoxyphenyl)butanoyl)piperidine-2-carboxylate]
- enhancer-promoter interactions after YY1 degradation (H3K27ac HiChIP) ([1]; treated): loss in enhancer-promoter interactions
- enhancer-promoter interactions after washout and recovery of YY1 levels (H3K27ac HiChIP) ([1]; washout): substantial increase in enhancer-promoter interactions
- YY1 protein degradation ([2]; FKBP degron tag knocked-in to both alleles of Yy1, mES cells, 24 hours treatment): rapid proteasome-mediated degradation
- washout time allowing recovery of YY1 protein levels ([2]; after 24 hours treatment at 500 nM, drug withdrawal): 5 days

Molecule: bovine serum albumin (BSA): control protein in the DNA circularization assay
- rate of DNA circularization [3]: did not increase the rate of DNA ligation

B1: YY1 EMSA probe (dsDNA)
DNA 1: TCGCTCCCCGGCCATCTTGGCGGCTGGTGT
DNA 2: ACACCAGCCGCCAAGATGGCCGGGGAGCGA
- binding result (YY1): binds

B2: competing 200 base pair DNA fragment: 200 base pair DNA fragment containing the YY1 consensus binding sequence, SEQ ID NO: 28 (nucleic acid)
DNA: GAGCAACAACAACAACGAACCGGTTCGACCTCCCCGGCCATCTTTCGACCTCCCCGGCCATCTTTCGACCTCCCCGGCCATCTTTCGACCTCCCCGGCCATCTTTCGACCTCCCCGGCCATCTTTCGACCTCCCCGGCCATCTTTCGACCTCCCCGGCCATCTTTCGACCTCCCGTCGACAGAGGCAGCAAAAGCCAGA
modifications: competitor DNA
- rate of DNA circularization [3]: abrogated circularization
